Counter-ions that a name gives are not always drawn.
System: not given
Details: based on steady-state pharmacokinetics; cited from earlier work

Compound | plasma antibiotic threshold level
CN(C)[C@@H]1C(O)=C(C(N)=O)C(=O)[C@@]2(O)C(O)=C3C(=O)c4c(O)cccc4[C@@](C)(O)[C@H]3C[C@@H]12 [Tetracycline, reference compound] | 0.5 µg/mL

System: not given
Details: single dose of two 100 mg minocycline HCl tablets, adult humans; cited from earlier work

Compound | average minocycline serum level
CN(C)c1ccc(O)c2c1C[C@H]1C[C@H]3[C@H](N(C)C)C(O)=C(C(N)=O)C(=O)[C@@]3(O)C(O)=C1C2=O [minocycline HCl] | 2.24 µg/mL

System: BALB/c 3T3 (CCL-163) cells
Details: not given

MPE | PIF 1 | PIF 2 | mean PIF2 | Compound
0.654 | 647 | 84.72 |  | NC(=O)C1=C(O)C[C@@H]2C[C@@H]3Cc4cccc(O)c4C(=O)C3=C(O)[C@]2(O)C1=O [COL 3, 6-demethyl-6-deoxy-4-dedimethylaminotetracycline]
0.703 | 165 | 82.61 |  | CC1c2cccc(O)c2C(=O)C2=C(O)C3(O)C(=O)C(C(N)=O)=C(O)CC3C(O)C21 (stereo not shown) [COL 8, 4-dedimethylaminodoxycycline]
0.546 |  |  |  | Cc1c2c(c(O)c3c(O)cccc13)C(=O)C1C(=O)C(C(N)=O)=C(O)CC1C2 (stereo not drawn) [COL 9, 4-de(dimethylamino)-12α-deoxyanhydrotetracycline]
0.099 | 1.82 | 2.04 | 2.04 | CN(C)c1ccc(O)c2c1CC1CC3CC(O)=C(C(N)=O)C(=O)C3(O)C(O)=C1C2=O (stereo not shown) [COL 10, 4-dedimethylaminominocycline]
0.378 | 23.16 | 23.32 |  | NC(=O)C1=C(O)CC2CC3Cc4c([N+](=O)[O-])ccc(O)c4C(=O)C3=C(O)C2(O)C1=O (stereo not shown) [COL 302, 7-nitro-6-demethyl-6-deoxy-4-dedimethylaminotetracycline]
0.309 | 5.27 | 13.82 |  | NC(=O)C1=C(O)CC2CC3Cc4ccc([N+](=O)[O-])c(O)c4C(=O)C3=C(O)C2(O)C1=O (stereo not shown) [COL 303, 9-nitro-6-demethyl-6-deoxy-4-dedimethylaminotetracycline]
0.420 |  |  |  | CC(=O)Nc1ccc2c(c1O)C(=O)C1=C(O)C3(O)C(=O)C(C(N)=O)=C(O)CC3CC1C2 (stereo not shown) [COL 305, 9-acetamido-6-demethyl-6-deoxy-4-dedimethylaminotetracycline]
0.056 | 1.17 |  |  | NC(=O)C1=C(O)CC2CC3Cc4c(N)ccc(O)c4C(=O)C3=C(O)C2(O)C1=O (stereo not shown) [COL 307, 7-amino-6-demethyl-6-deoxy-4-dedimethylaminotetracycline]
0.170 | 5.17 | 12.87 |  | CN(C)CC(=O)Nc1ccc2c(c1O)C(=O)C1=C(O)C3(O)C(=O)C(C(N)=O)=C(O)CC3CC1C2 (stereo not shown) [COL 309, 9-dimethylaminoacetamido-6-demethyl-6-deoxy-4-dedimethylaminotetracycline]
0.442 | 62.67 | 75.11 |  | O=C(NCN1CCCC1)C1=C(O)CC2CC3Cc4cccc(O)c4C(=O)C3=C(O)C2(O)C1=O (stereo not shown) [COL 312, 2-CONHCH2-pyrrolidin-1-yl-6-demethyl-6-deoxy-4-dedimethylaminotetracycline]
0.462 | 80.27 | 58.22 |  | O=C(NCN1CCCCC1)C1=C(O)CC2CC3Cc4cccc(O)c4C(=O)C3=C(O)C2(O)C1=O (stereo not shown) [COL 313, 2-CONHCH2-piperidin-1-yl-6-demethyl-6-deoxy-4-dedimethylaminotetracycline]
0.475 | 41.1 | 89.48 |  | O=C(NCN1CCOCC1)C1=C(O)CC2CC3Cc4cccc(O)c4C(=O)C3=C(O)C2(O)C1=O (stereo not shown) [COL 314, 2-CONHCH2-morpholin-1-yl-6-demetlyl-6-deoxy-4-dedimethylaminotetracycline]
0.276 | 15.8 | 35.30 |  | O=C(NCN1CCNCC1)C1=C(O)CC2CC3Cc4cccc(O)c4C(=O)C3=C(O)C2(O)C1=O (stereo not shown) [COL 315, 2-CONHCH2-piperazin-1-yl-6-demethyl-6-deoxy-4-dedimethylaminotetracycline]
−0.001 | 1.0 |  |  | CC(=O)Nc1ccc2c(c1O)C(=O)C1=C(O)C3(O)C(=O)C(C(N)=O)=C(O)CC3C(O)C1C2C (stereo not shown) [COL 801, 9-acetamido-4-dedimethylaminodoxycycline]
−0.123 | 1.0 |  |  | CC1c2ccc(NC(=O)CN(C)C)c(O)c2C(=O)C2=C(O)C3(O)C(=O)C(C(N)=O)=C(O)CC3C(O)C21 (stereo not shown) [COL 802, 9-dimethylaminoacetamido-4-dedimethylaminodoxycycline]
0.047 |  |  |  | CCCCCCCCCCCCCCCC(=O)Nc1ccc2c(c1O)C(=O)C1=C(O)C3(O)C(=O)C(C(N)=O)=C(O)CC3C(O)C1C2C (stereo not shown) [COL 803, 9-palmitamide-4-dedimethylaminodoxycycline]
0.003 | 1.0 |  |  | CC1c2ccc([N+](=O)[O-])c(O)c2C(=O)C2=C(O)C3(O)C(=O)C(C(N)=O)=C(O)CC3C(O)C21 (stereo not shown) [COL 804, 9-nitro-4-dedimethylaminodoxycycline]
0.022 | 1.0 |  |  | CC1c2ccc(N)c(O)c2C(=O)C2=C(O)C3(O)C(=O)C(C(N)=O)=C(O)CC3C(O)C21 (stereo not shown) [COL 805, 9-amino-4-dedimethylaminodoxycycline]
0.382 | 40.4 |  |  | CC1c2cccc(O)c2C(=O)C2=C(O)C3(O)C(=O)C(C(=O)NCN4CCCC4)=C(O)CC3C(O)C21 (stereo not shown) [COL 807, 2-CONHCH2-pyrrolidin-1-yl-4-dedimethylaminodoxycycline]
0.387 | 46.45 |  |  | CC1c2cccc(O)c2C(=O)C2=C(O)C3(O)C(=O)C(C(=O)NCN4CCCCC4)=C(O)CC3C(O)C21 (stereo not shown) [COL 808, 2-CONHCH2-piperidin-1-yl-4-dedimethylaminodoxycycline]
0.420 |  |  |  | CC1c2cccc(O)c2C(=O)C2=C(O)C3(O)C(=O)C(C(=O)NCN4CCNCC4)=C(O)CC3C(O)C21 (stereo not shown) [COL 809, 2-CONHCH2-piperazin-1-yl-4-dedimethylaminodoxycycline]
0.040 | 1.0 | 1.35 | 1.35 | CN(C)c1cc([N+](=O)[O-])c(O)c2c1CC1CC3CC(O)=C(C(N)=O)C(=O)C3(O)C(O)=C1C2=O (stereo not shown) [COL 1002, 9-nitro-4-dedimethylaminominocycline]

Compound | MPE | PIF 1 | PIF 2 | mean PIF2
CC1(O)c2cccc(O)c2C(=O)C2=C(O)C3(O)C(=O)C(C(N)=O)=C(O)CC3CC21 (stereo not shown) [COL 1, 4-dedimethylaminotetracycline] | 0.460 |  |  | 
CN(C)C1C(=O)C(C#N)=C(O)C2(O)C(=O)C3=C(O)c4c(O)cccc4C(C)(O)C3CC12 (stereo not shown) [COL 2, tetracyclinonitrile] | 0.005 |  |  | 
CC1(O)c2c(Cl)ccc(O)c2C(=O)C2=C(O)C3(O)C(=O)C(C(N)=O)=C(O)CC3CC21 (stereo not shown) [COL 4, 7-chloro-4-dedimethylaminotetracycline] | 0.570 |  |  | 
CC1(O)c2cccc(O)c2C(=O)C2=C(O)C3(O)C(=O)C(C(N)=O)=C(O)C(O)C3CC21 (stereo not shown) [COL 6, 4-hydroxy-4-dedimethylaminotetracycline] | 0.155 |  |  | 
CC1(O)c2cccc(O)c2C(=O)C2=C(O)C3C(=O)C(C(N)=O)=C(O)CC3CC21 (stereo not drawn) [COL 7, 4-dedimethylamino-12α-deoxytetracycline] | 0.531 |  |  | 
CN(C)c1ccc2c(c1O)C(=O)C1=C(O)C3(O)C(=O)C(C(N)=O)=C(O)CC3CC1C2 (stereo not shown) [COL 306, 9-dimethylamino-6-demethyl-6-deoxy-4-dedimethylaminotetracycline] | 0.038 | 1.64 | 1.56 | 
NC(=O)C1=C(O)CC2CC3Cc4ccc(N)c(O)c4C(=O)C3=C(O)C2(O)C1=O (stereo not shown) [COL 308, 9-amino-6-demethyl-6-deoxy-4-dedimethylaminotetracycline] | 0.015 | 1.0 |  | 
CCCCCCCCCCCCCCCC(=O)Nc1ccc2c(c1O)C(=O)C1=C(O)C3(O)C(=O)C(C(N)=O)=C(O)CC3CC1C2 (stereo not shown) [COL 311, 9-palmitamide-6-demethyl-6-deoxy-4-dedimethylaminotetracycline] | 0.013 | 1.0 |  | 
C[N+](C)(C)c1ccc(O)c2c1CC1CC3CC(O)=C(C(N)=O)C(=O)C3(O)C(O)=C1C2=O (stereo not shown) [COL 1001, 7-trimethylammonium-4-dedimethylaminosancycline] | 0.025 |  |  | 

Same assay, conditions: mouse

MPE | PIF 2 | Compound | PIF 1
0.639 | 40.38 | CN(C)CCCN1c2ccccc2Sc2ccc(Cl)cc21 [Chlorpromazine, reference compound] | 
0.522 | 26.71 | C[C@H]1c2cccc(O)c2C(=O)C2=C(O)[C@]3(O)C(=O)C(C(N)=O)=C(O)[C@@H](N(C)C)[C@@H]3[C@@H](O)[C@@H]21 [Doxycycline, 6α-deoxy-5-hydroxytetracycline, reference compound] | 23.37

Compound | MPE | PIF 2 | PIF 1
CN(C)[C@@H]1C(O)=C(C(N)=O)C(=O)[C@@]2(O)C(O)=C3C(=O)c4c(O)cccc4[C@@](C)(O)[C@H]3C[C@@H]12 [Tetracycline, reference compound] | 0.340 |  | 5.38

System: not given
Details: 250 mg every six hours over a twenty-four hour period; cited from earlier work

Compound | peak plasma concentration
CN(C)[C@@H]1C(O)=C(C(N)=O)C(=O)[C@@]2(O)C(O)=C3C(=O)c4c(O)cccc4[C@@](C)(O)[C@H]3C[C@@H]12 [tetracycline HCl] | approximately 3 μg/ml
